According to patent US7705012B2, “Camptothecins conjugated in position 7 to cyclic peptides as cytostatic agents” (priority 2004, dated 2010):
“And” between values parts separate entries of the source, which are not always exact repeats. Equal values may be shown once. Read-outs that look alike come from different tables or passages of the source.

Experiments:
purified αvβ3 receptor = biological target: T1, purified αvβ3 receptor (Homo sapiens, UniProt P05106+P06756); experiment: Binding to integrin αvβ3 receptors ([125I]echistatin competition)
T1 construct: purchased Chemicon CC1020
Protocol: Binding to Integrin αvβ3 Receptors
(§1) An aliquot of 100 μl was added to 96-well plates and incubated overnight at +4° C. Plates were washed once with buffer (50 mM Tris, pH 7,4, 100 mM NaCl, 2 mM CaCl2, 1 mM MgCl2, 1 mM MnCl2, 1% bovine serum albumin) and then incubated for another 2 hours at room temperature. Plates were washed twice with the same buffer and incubated for 3 hours at room temperature with the radioactive ligand [^125I]echistatin (Amersham Pharmacia Biotech) 0.05 nM in the presence of competition ligands. At the end of incubation, the wells were washed and the radioactivity determined using a gamma counter (Packard). Non-specific binding of the ligand was determined in the presence of excess cold echistatin (1 μM).
(§2) Evaluation of IC50 Parameters
(§3) The IC50 parameter was elaborated using “ALLFIT” software.

purified αvβ5 receptor = biological target: T2, purified αvβ5 receptor (Homo sapiens, UniProt P06756+P18084); experiment: Binding to integrin αvβ5 receptors ([125I]echistatin competition)
T2 construct: purchased Chemicon CC1020
Protocol: Binding to Integrin αvβ5 Receptors
as §1, with “7.4,” for “7,4,”, “0.15” for “0.05”, “Non-specific ligand” for “Non-specific”, “binding” for “binding of the ligand”
as §2, §3

[1] = test system: PC3 human prostate carcinoma; experiment: Cytotoxicity, sulphorodamine B test, PC3; assay type: cell-based; conditions: PC3 cells, 72 h, cell survival; read-out: PC3 IC50 ± SD
Protocol: (§4) Cytotoxicity of the Conjugates on Different Tumor Cell Lines
(§5) To evaluate the effect of the compound on cell survival, the sulphorodamine B test was used. PC3 human prostate carcinoma, A498 human renal carcinoma, A2780 human ovarian carcinoma cells were used. A2780 and PC3 tumor cells were grown RPMI 1640 containing 10% fetal bovine serum (GIBCO), whereas A498 tumor cells were grown in EMEM containing 10% fetal bovine serum (GIBCO).
(§6) Tumor cells were seeded in 96-well tissue culture plates (Corning) at approximately 10% of confluence and were allowed to attach and recover for at least 24 h. […] The plates were incubated for 72 h at 37° C. At the end of the treatment, the plates were washed by remotion of the surnatant and addition of PBS 3 times. 200 μl PBS and 50 μl of cold 80% TCA were added. The plates were incubated on ice for at least 1 h. TCA was removed, the plates were washed 3 times for immersion in distilled-water and dried on paper and at 40° C. for 5 min. Then 200 μl of 0.4% sulphorodamine B in 1% acetic acid were added. The plates were incubated at room temperature for other 30 min. Sulphorodamine B was removed, the plates were washed for immersion in 1% acetic acid for 3 times, then they were dried on paper and at 40° C. for 5 min. Then 200 μl Tris 10 mM were added, the plates were kept under stirring for 20 min. The survival cell was determined as optical density by a Multiskan spectrofluorimeter at 540 nm. The amount of cells killed was calculated as the percentage decrease in sulphorodamine B binding compared with control cultures. The IC50 values were calculated with the “ALLFIT” program.

[2] = test system: A498 human renal carcinoma; experiment: Cytotoxicity, sulphorodamine B test, A498; assay type: cell-based; conditions: A498 cells, 72 h, cell survival; read-out: A498 IC50 ± SD
Protocol: as §4, §5, §6

[3] = test system: A2780 human ovarian carcinoma cells; experiment: Cytotoxicity, sulphorodamine B test, A2780; assay type: cell-based; conditions: 72 h, cell survival, read-out: A2780 IC50 ± SD
Protocol: as §4, §5, §6

Row | Structure (SMILES) | IC50 (purified αvβ3 receptor) | IC50 (purified αvβ5 receptor) | IC50 [1] | IC50 [2] | IC50 [3] | IC50 (purified αvβ3 receptor; inhibition of specific [125I]echistatin 0.05 nM binding, 3 hours at room temperature, read-out: αvβ3 IC50 ± SD) | IC50 (purified αvβ5 receptor; inhibition of specific [125I]echistatin 0.15 nM binding, 3 hours at room temperature, read-out: αvβ5 IC50 ± SD)
1 | CC[C@@]1(O)C(=O)OCc2c1cc1n(c2=O)Cc2c-1nc1ccccc1c2/C=N\OCCNC(=O)COCCOCCOCC(=O)NCc1ccc(C[C@@H]2NC(=O)[C@@H](Cc3ccccc3)NC(=O)[C@H](CC(=O)O)NC(=O)CNC(=O)[C@H](CCCNC(=N)N)NC2=O)cc1 [ST2742] | 12.5 ± 2.1 nM | 6.5 ± 0.03 nM | 27 ± 3.9 µM | 740 nM and 700 nM | 180 ± 10 nM | – | –
2 | CC[C@@]1(O)C(=O)OCc2c1cc1n(c2=O)Cc2c-1nc1ccccc1c2/C=N\OCCNC(=O)CCC(=O)NCc1ccc(C[C@@H]2NC(=O)[C@@H](Cc3ccccc3)NC(=O)[C@H](CC(=O)O)NC(=O)CNC(=O)[C@H](CCCNC(=N)N)NC2=O)cc1 [ST2724] | 7.27 ± 0.06 nM | 8.39 ± 0.07 nM | 4.7 ± 0.4 µM | 4300 nM | 160 ± 1 nM | – | –
3 | CC[C@@]1(O)C(=O)OCc2c1cc1n(c2=O)Cc2c-1nc1ccccc1c2/C=N\OCCNC(=O)CCC[C@@H]1NC(=O)[C@@H](Cc2ccccc2)NC(=O)[C@H](CC(=O)O)NC(=O)CNC(=O)[C@H](CCCNC(=N)N)NC1=O [ST2686] | – | – | 15 ± 1.5 µM | 3200 nM | 400 ± 30 nM | 0.59 ± 0.01 nM | 0.37 ± 0.01 nM
